Assays:
[1] = target: FGFR1 (Homo sapiens, UniProt P11362); assay: FGFR kinase phosphorylation activity by radioactive labeling; assay type: biochemical; settings: read-out: FGFR1, concentration that inhibits 50% of the kinase activity
Procedure: 5. Screening of Molecules by Measuring, by Radioactive Labeling, the FGFR Kinase Phosphorylation Activity in the Presence of PLCγ Substrate
The test is carried out in a similar manner to that carried out with the FLT1 enzyme by using, instead of 13 nM of Flt1, 27 nM of FGFR enzyme and mixed in the 96-well plates are 18 μl of GST-FGFR enzyme at 1.1 mg/ml (for a purity of 100%): (batch JCE3666).

[2] = tested on: human hepatocytes; assay: Intrinsic clearance using human hepatocytes; assay type: in vitro ADME; settings: for intrinsic clearance value: 5 μM, 0-24 hours; for inter-individual variability of intrinsic clearance: cryopreserved and fresh donor preparations
Procedure: Evaluation of the intrinsic clearance of the compounds using human hepatocytes: experimental protocol.
NB: The in vitro test described below on human liver cells is used to predict an important pharmacokinetic parameter: the metabolization by the liver for a given compound when it is administered to man.
Incubations of cryopreserved preparations of human hepatocytes (from IVT: IVT-TLN-180608 from In Vitro Technologies, inc. Baltimore, Md., USA) and fresh preparations of human hepatocytes (from Biopredic: HEP200239) were carried out in plates comprising 48 collagen-coated wells.
The kinetics were initiated by the addition, to the culture medium, of the compounds at a final concentration of 5 μM, in the absence or in the presence of 10 μM ketoconazole (CYP3A4 inhibitor). The incubation volume is 100 μl, the incubation time: 0-24 hours (standard kinetic points: 0-0.5-1-2-4-6-8-24 hours).
The kinetics were stopped by addition of acetonitrile/water, with corticosterone, as an internal standard. The cells were detached then lysed. The intracellular and extracellular media were recombined and frozen (−20° C.) in order to be stored until the LC-MS/MS analysis.
The combined extracellular and intracellular media were defrosted, submitted to ultrasound action, agitated with a vortex and centrifuged at 3000 g for 20 minutes. The supernatants were injected and analysed by LC-MS/MS.
The maximum initial in vitro rate was calculated for the specific metabolites of the P450 cytochromes and expressed in nmol/hour/million of cells. V=[concentration at T(n)−concentration at T(n−1)]/[T(n)−T(n−1)]
The intrinsic clearance was determined and expressed in ml/hour/million of cells Clint=dose/AUC0-24 h Dose=amount at T(0)(nmol/million of cells)
AUC0-24 h: calculated by WinNonlin, with a non-compartmental analysis modeling an intravenous injection of bolus type
From IVT: ● IVT, TLN group: person
From Biopredic: ● HEP200239: person, unknown

[3] = target: VEGFR3 (Homo sapiens, UniProt P35916); assay: VEGFR3 kinase inhibition (Table 1); assay type: biochemical; settings: read-out: VEGFR3, concentration that inhibits 50% of the kinase activity
VEGFR3, sequence (P35916 25-1363, species assumed): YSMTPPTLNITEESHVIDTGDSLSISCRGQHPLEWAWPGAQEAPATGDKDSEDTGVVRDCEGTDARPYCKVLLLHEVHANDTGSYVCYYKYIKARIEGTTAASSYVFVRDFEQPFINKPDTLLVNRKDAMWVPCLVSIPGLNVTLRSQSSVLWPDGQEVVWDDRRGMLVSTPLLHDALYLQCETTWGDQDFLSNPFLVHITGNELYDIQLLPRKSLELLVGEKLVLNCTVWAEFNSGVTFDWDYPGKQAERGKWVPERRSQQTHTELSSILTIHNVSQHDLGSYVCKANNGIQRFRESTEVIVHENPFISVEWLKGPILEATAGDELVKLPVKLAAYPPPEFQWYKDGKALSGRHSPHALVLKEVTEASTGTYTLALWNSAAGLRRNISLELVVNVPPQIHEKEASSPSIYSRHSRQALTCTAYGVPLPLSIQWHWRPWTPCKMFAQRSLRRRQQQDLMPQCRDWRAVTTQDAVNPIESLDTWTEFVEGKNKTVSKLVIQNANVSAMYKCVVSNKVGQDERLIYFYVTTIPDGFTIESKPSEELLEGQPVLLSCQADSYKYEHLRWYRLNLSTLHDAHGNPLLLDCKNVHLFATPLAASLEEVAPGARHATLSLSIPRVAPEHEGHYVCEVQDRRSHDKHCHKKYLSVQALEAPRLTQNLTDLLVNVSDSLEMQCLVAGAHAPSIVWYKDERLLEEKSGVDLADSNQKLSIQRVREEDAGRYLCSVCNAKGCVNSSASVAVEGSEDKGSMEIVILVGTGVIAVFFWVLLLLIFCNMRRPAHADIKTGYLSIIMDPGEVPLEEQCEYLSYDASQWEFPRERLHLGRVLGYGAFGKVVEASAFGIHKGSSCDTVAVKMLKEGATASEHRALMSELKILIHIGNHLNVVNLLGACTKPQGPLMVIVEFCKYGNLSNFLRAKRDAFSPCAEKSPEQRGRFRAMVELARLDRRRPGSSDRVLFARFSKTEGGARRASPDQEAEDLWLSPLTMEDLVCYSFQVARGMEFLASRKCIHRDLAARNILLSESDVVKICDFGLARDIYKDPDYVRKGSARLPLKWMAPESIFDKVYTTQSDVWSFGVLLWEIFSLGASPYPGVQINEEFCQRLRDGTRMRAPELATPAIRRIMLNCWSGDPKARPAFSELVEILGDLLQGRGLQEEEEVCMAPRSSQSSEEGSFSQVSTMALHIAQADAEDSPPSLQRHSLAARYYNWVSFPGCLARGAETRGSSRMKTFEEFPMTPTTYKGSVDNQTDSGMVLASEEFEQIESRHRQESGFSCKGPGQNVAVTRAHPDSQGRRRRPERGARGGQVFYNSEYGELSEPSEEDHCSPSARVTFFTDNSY

FGFR1, sequence (P11362 22-822, species assumed): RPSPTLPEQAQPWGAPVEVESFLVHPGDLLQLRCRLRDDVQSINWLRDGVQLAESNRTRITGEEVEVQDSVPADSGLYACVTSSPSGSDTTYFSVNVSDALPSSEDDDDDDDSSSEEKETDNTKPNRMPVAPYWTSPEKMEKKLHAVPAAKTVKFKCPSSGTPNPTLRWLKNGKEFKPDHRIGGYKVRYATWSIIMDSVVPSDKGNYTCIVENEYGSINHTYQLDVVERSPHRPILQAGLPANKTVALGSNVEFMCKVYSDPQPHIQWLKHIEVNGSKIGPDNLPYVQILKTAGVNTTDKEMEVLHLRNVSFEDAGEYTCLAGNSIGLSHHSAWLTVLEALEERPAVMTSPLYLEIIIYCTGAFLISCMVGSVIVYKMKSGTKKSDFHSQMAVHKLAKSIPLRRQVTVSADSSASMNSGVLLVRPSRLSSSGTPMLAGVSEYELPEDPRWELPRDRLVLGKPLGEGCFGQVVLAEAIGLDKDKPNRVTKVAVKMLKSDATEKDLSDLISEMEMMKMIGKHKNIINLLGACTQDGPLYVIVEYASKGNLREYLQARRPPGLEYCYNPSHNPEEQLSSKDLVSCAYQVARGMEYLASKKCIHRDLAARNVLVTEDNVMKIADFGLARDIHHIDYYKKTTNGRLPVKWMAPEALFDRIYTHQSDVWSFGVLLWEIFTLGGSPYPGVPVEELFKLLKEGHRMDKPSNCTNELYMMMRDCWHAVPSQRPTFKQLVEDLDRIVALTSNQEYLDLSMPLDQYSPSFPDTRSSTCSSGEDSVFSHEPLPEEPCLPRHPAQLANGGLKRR

Compound | IC50 [1] [nM] | classification of the intrinsic clearance [2] | intrinsic clearance value [2] | inter-individual variability of intrinsic clearance [2] | IC50 [3] [nM]
Cl.NC(=O)c1n[nH]cc1NCc1cc(F)cc(NC(=O)Nc2ccc(C(F)(F)F)cc2Cl)c1 [Example 1, 4-{3-[3-(2-Chloro-4-trifluoromethylphenyl)ureido]-5-fluorobenzylamino}-1H-pyrazole-3-carboxamide hydrochloride] | 54 | intermediate (Clint<0.040 ml·h^−1·10^−6 cell: intermediate intrinsic clearance) | 0.057 ml/hour/million of cells | low | 3
Cl.NC(=O)c1n[nH]cc1NCc1cc(F)cc(NC(=O)Nc2ccc(C(F)(F)F)cc2F)c1 [Example 2, 4-{3-[3-(2-Fluoro-4-trifluoromethylphenyl)ureido]-5-fluorobenzylamino}-1H-pyrazole-3-carboxamide hydrochloride] | 92 | intermediate (Clint<0.040 ml·h^−1·10^−6 cell: intermediate intrinsic clearance) | 0.055 ml/h/million of cells | low | –

From patent US8367715B2, “Pyrazole derivatives, preparation thereof, and therapeutic use thereof” (priority 2009, dated 2013)
